The supplement of paper PMC4932681

What was measured:
ZR-75-1 Tam2 [1] = test: drug sensitivity score (DSS) (DSS (dimensionless)); higher = more sensitive; extreme values may be limits of the assay; conditions: 4-OH-tamoxifen in medium 1 µM; 72 h
In short: (§1)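 After seeding into 384-well plates with library drugs at five concentrations spanning a 10 000-fold range, breast cancer cell lines and their resistant derivatives were incubated 72 h at 37 °C. Resistant lines received medium with 1 μM of the selecting drug. CellTiter-Glo signal was read on a PHERAstar and scaled to vehicle-only and positive controls. Drug sensitivity score, relative IC50 (the curve midpoint) and top-dose inhibition came from logistic fits run in the Breeze pipeline.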

ZR-75-1 [2] = test: as above; conditions: 72 h
In short: as §1

MCF-7 Tam1 [3] = test: as above; conditions: 4-OH-tamoxifen in medium 1 µM; 72 h
In short: as §1

T-47D Tam1 [4] = test: as above; conditions: 4-OH-tamoxifen in medium 1 µM; 72 h
In short: as §1

BT-474 [5] = test: as above; conditions: 72 h
In short: as §1

BT-474 Tam1 [6] = test: as above; conditions: 4-OH-tamoxifen in medium 1 µM; 72 h
In short: as §1

T-47D Tam2 [7] = test: as above; conditions: 4-OH-tamoxifen in medium 1 µM; 72 h
In short: as §1

MCF-7 [8] = test: as above; conditions: 72 h
In short: as §1

BT-474 Tam2 [9] = test: as above; conditions: 4-OH-tamoxifen in medium 1 µM; 72 h
In short: as §1

ZR-75-1 Tam1 [10] = test: as above; conditions: 4-OH-tamoxifen in medium 1 µM; 72 h
In short: as §1

T-47D [11] = test: as above; conditions: 72 h
In short: as §1

ZR-75-1 [12] = test: relative IC50 (midpoint of fitted logistic curve, plateau may be below 50% inhibition; CellTiter-Glo viability); higher = less potent; conditions: 72 h
In short: as §1

MCF-7 Tam1 [13] = test: as above; conditions: 4-OH-tamoxifen in medium 1 µM; 72 h
In short: as §1

T-47D Tam1 [14] = test: as above; conditions: 4-OH-tamoxifen in medium 1 µM; 72 h
In short: as §1

BT-474 [15] = test: as above; conditions: 72 h
In short: as §1

BT-474 Tam1 [16] = test: as above; conditions: 4-OH-tamoxifen in medium 1 µM; 72 h
In short: as §1

T-47D Tam2 [17] = test: as above; conditions: 4-OH-tamoxifen in medium 1 µM; 72 h
In short: as §1

MCF-7 [18] = test: as above; conditions: 72 h
In short: as §1

BT-474 Tam2 [19] = test: as above; conditions: 4-OH-tamoxifen in medium 1 µM; 72 h
In short: as §1

T-47D [20] = test: as above; conditions: 72 h
In short: as §1

ZR-75-1 Tam2 [21] = test: as above; conditions: 4-OH-tamoxifen in medium 1 µM; 72 h
In short: as §1

ZR-75-1 Tam1 [22] = test: as above; conditions: 4-OH-tamoxifen in medium 1 µM; 72 h
In short: as §1

| Structure (SMILES) | drug sensitivity score (ZR-75-1 Tam2 [1]) | drug sensitivity score (ZR-75-1 [2]; 4-OH-tamoxifen in medium 0 µM) | drug sensitivity score (ZR-75-1 [2]; 4-OH-tamoxifen in medium 1 µM) | drug sensitivity score (MCF-7 Tam1 [3]) | drug sensitivity score (T-47D Tam1 [4]) | drug sensitivity score (BT-474 [5]; 4-OH-tamoxifen in medium 0 µM) | drug sensitivity score (BT-474 [5]; 4-OH-tamoxifen in medium 1 µM) | drug sensitivity score (BT-474 Tam1 [6]) | drug sensitivity score (T-47D Tam2 [7]) | drug sensitivity score (MCF-7 [8]; 4-OH-tamoxifen in medium 0 µM) | drug sensitivity score (MCF-7 [8]; 4-OH-tamoxifen in medium 1 µM) | drug sensitivity score (BT-474 Tam2 [9]) | drug sensitivity score (ZR-75-1 Tam1 [10]) | drug sensitivity score (T-47D [11]; 4-OH-tamoxifen in medium 0 µM) | drug sensitivity score (T-47D [11]; 4-OH-tamoxifen in medium 1 µM) | relative IC50 (ZR-75-1 [12]; 4-OH-tamoxifen in medium 0 µM) [µM] | relative IC50 (MCF-7 Tam1 [13]) [µM] | relative IC50 (T-47D Tam1 [14]) [nM] | relative IC50 (BT-474 [15]; 4-OH-tamoxifen in medium 0 µM) [µM] | relative IC50 (BT-474 [15]; 4-OH-tamoxifen in medium 1 µM) [µM] | relative IC50 (BT-474 Tam1 [16]) [µM] | relative IC50 (T-47D Tam2 [17]) [µM] | relative IC50 (MCF-7 [18]; 4-OH-tamoxifen in medium 0 µM) [nM] | relative IC50 (BT-474 Tam2 [19]) [µM] | relative IC50 (T-47D [20]; 4-OH-tamoxifen in medium 0 µM) [µM] | relative IC50 (T-47D [20]; 4-OH-tamoxifen in medium 1 µM) [µM] | relative IC50 (ZR-75-1 Tam2 [21]) [µM] | relative IC50 (ZR-75-1 [12]; 4-OH-tamoxifen in medium 1 µM) [µM] | relative IC50 (ZR-75-1 Tam1 [22]) [µM] | relative IC50 (MCF-7 [18]; 4-OH-tamoxifen in medium 1 µM) [nM] |
| --- | --- | --- | --- | --- | --- | --- | --- | --- | --- | --- | --- | --- | --- | --- | --- | --- | --- | --- | --- | --- | --- | --- | --- | --- | --- | --- | --- | --- | --- | --- |
| C=CCN(/C=C1/C(=O)O[C@H](COC)[C@@]2(C)C1=C(O)C(=O)C1=C2[C@H](OC(C)=O)C[C@]2(C)C(=O)CC[C@@H]12)CC=C [Sonolisib (PX-866)] | 0.0742 | 0 | 0.361 | 0 | 0 | 0 | 0 | 0 | 0 | 0 | 0 | 0 | 0.103 | 0 | 0 | > 10 | > 10 | > 10000 | > 10 | > 10 | > 10 | > 10 | > 10000 | > 10 | > 10 | > 10 | – | – | – | – |
| C[C@]12CC[C@@H]3c4ccc(O)cc4C[C@@H](CCCCCCCCC[S+]([O-])CCCC(F)(F)C(F)(F)F)[C@H]3[C@@H]1CC[C@@H]2O (stereo partly specified) [Fulvestrant] | 0 | 0 | 0 | 0 | 0.0366 | 0 | 0 | 0 | 0 | 7.84 | 0.235 | 0 | 0 | 0 | 5.21 | > 1 | > 1 | – | > 1 | > 1 | > 1 | > 1 | 6.43 | > 1 | > 1 | 0.045 | > 1 | > 1 | > 1 | – |
| COc1cc(Nc2ncc(F)c(Nc3ccc4c(n3)NC(=O)C(C)(C)O4)n2)cc(OC)c1OC [Tamatinib (R406)] | 0 | 0 | 0 | 0 | 0.592 | 0 | 0 | 0 | 0 | 0 | 0 | 0 | 0 | 0 | 0 | > 10 | > 10 | – | > 10 | > 10 | > 10 | > 10 | > 10000 | > 10 | > 10 | > 10 | > 10 | > 10 | > 10 | > 10000 |
| CCCCCOC(=O)Nc1nc(=O)n([C@@H]2O[C@H](C)[C@@H](O)[C@H]2O)cc1F [Capecitabine] | 0.0192 | 1.86 | 0 | 0 | 0 | 0 | 0 | 0 | 0 | 0 | 0 | 0 | 0.129 | 0 | 0 | – | > 10 | > 10000 | > 10 | > 10 | > 10 | > 10 | > 10000 | > 10 | > 10 | > 10 | – | > 10 | – | > 10000 |
| Cc1cc(Nc2nc(N[C@@H](C)c3ncc(F)cn3)ncc2Cl)[nH]n1 [AZD1480] | 0 | 0 | 0 | 0 | 2.6 | 0 | 0 | 0 | 0 | 0.0046 | 0 | 0 | 0 | 0 | 0 | > 1 | > 1 | – | > 1 | > 1 | > 1 | > 1 | – | > 1 | > 1 | > 1 | > 1 | > 1 | > 1 | > 1000 |
| N#Cc1ccc(C(c2ccc(C#N)cc2)n2cncn2)cc1 [Letrozole] | 0 | 0 | 0 | 0 | 2.88 | 0 | 0 | 0 | 0 | 0 | 0 | 0 | 0 | 0 | 11.1 | > 10 | > 10 | – | > 10 | > 10 | > 10 | > 10 | > 10000 | > 10 | > 10 | – | > 10 | > 10 | > 10 | > 10000 |
| COc1cc([C@@H]2c3cc4c(cc3[C@@H](O[C@@H]3O[C@@H]5CO[C@@H](C)O[C@H]5[C@H](O)[C@H]3O)[C@H]3COC(=O)[C@H]23)OCO4)cc(OC)c1O [Etoposide] | 1.13 | 3.42 | 0.761 | 0 | 5.76 | 0 | 1.71 | 0.0698 | 0 | 0 | 0.239 | 0 | 1.42 | 6.74 | 0.625 | 0.612 | > 10 | 667 | > 10 | – | – | > 10 | > 10000 | > 10 | 0.605 | – | – | – | – | – |
| CC/C(=C(\c1ccc(O)cc1)c1ccc(OCCN(C)C)cc1)c1ccccc1 [4-hydroxytamoxifen] | 1.3 | 0 | 1.5 | 1.87 | 2.07 | 0.905 | 5.15 | 9.04 | 4.19 | 3.05 | 4.41 | 4.79 | 0.263 | 0.306 | 2.56 | > 10 | 3.94 | 2880 | – | 3.35 | 1.59 | 3.36 | 2870 | 3.57 | – | 3.9 | – | 3.2 | – | 3340 |
| N#CCNC(=O)c1ccc(-c2ccnc(Nc3ccc(N4CCOCC4)cc3)n2)cc1 [Momelotinib (CYT-387)] | 0 | 0 | 0.68 | 3.23 | 5.08 | 0 | 0 | 1.15 | 1.42 | 1.83 | 4.64 | 0.414 | 0 | 0.52 | 0 | > 10 | 2.03 | 346 | > 10 | > 10 | 5.2 | 4.18 | 4200 | – | – | > 10 | – | – | > 10 | 2520 |
| COc1ccccc1S(=O)(=O)Nc1ccc2c(c1)CN(C)C(=O)N2 [PFI-1] | 1.77 | 0.0459 | 1.01 | 0 | 4.01 | 2.69 | 0.561 | 0.704 | 1.76 | 2.8 | 2.92 | 2.35 | 1.48 | 0.887 | 0.0577 | – | > 10 | 492 | 1.1 | – | – | 2.71 | 2530 | 1.62 | – | – | – | – | – | 1890 |
| Nc1nc(F)nc2c1ncn2[C@@H]1O[C@H](CO)[C@@H](O)[C@@H]1O [Fludarabine] | 0 | 0 | 0 | 0 | 2.13 | 0 | 0 | 0 | 0 | 0 | 1.23 | 0 | 0 | 0 | 0 | > 10 | > 10 | – | > 10 | > 10 | > 10 | > 10 | > 10000 | > 10 | > 10 | > 10 | > 10 | > 10 | > 10 | – |
| Cc1cc(Nc2cc(CN3CCOCC3)c3nc(C)c(Cc4ccc(Cl)cc4F)n3n2)n[nH]1 | 0.848 | 0 | 0 | 2.42 | 3.55 | 0 | 7.73 | 16.2 | 3.58 | 6.61 | 4.32 | 12.8 | 0 | 1.41 | 1.86 | > 10 | 3.26 | 1560 | > 10 | 1.04 | 0.329 | 1.98 | 1410 | 0.749 | – | – | – | > 10 | > 10 | 2700 |
| CCC1=C[C@@H]2CN(C1)Cc1c([nH]c3ccccc13)[C@@](C(=O)OC)(c1cc3c(cc1OC)N(C)[C@H]1[C@@](O)(C(=O)OC)[C@H](OC(C)=O)[C@]4(CC)C=CCN5CC[C@]31[C@@H]54)C2 [Vinorelbine (tartrate)] | 2.36 | 9.06 | 3.16 | 0 | 7.24 | 13.8 | 23 | 17.2 | 8.26 | 9.78 | 12.3 | 14.3 | 1.16 | 6.22 | 2.28 | 0.0433 | > 10 | 687 | 0.0429 | 0.0843 | 0.249 | 0.583 | 202 | 0.442 | – | 1.73 | – | 1.54 | – | 141 |
| Nc1ccn([C@@H]2O[C@H](CO)[C@@H](O)[C@@H]2O)c(=O)n1 [Cytarabine] | 2.46 | 3.25 | 0.265 | 0 | 4.13 | 0 | 0 | 0 | 0 | 4.84 | 1.56 | 0 | 1.96 | 2.75 | 0 | 1.5 | > 10 | 580 | > 10 | > 10 | > 10 | > 10 | 435 | > 10 | 1.94 | > 10 | – | – | – | – |
| CN(C)CCOc1ccc(/C(=C(/CCCl)c2ccccc2)c2ccccc2)cc1 [Toremifene (citrate)] | 0.814 | 0 | 0.599 | 1.2 | 3.53 | 0.652 | 4.16 | 4.96 | 3.09 | 0.353 | 3.26 | 5.77 | 0.357 | 0 | 0 | > 10 | 4.15 | 1860 | – | 3.52 | 3.41 | 3.46 | – | 3.02 | > 10 | > 10 | – | – | – | 3690 |
